Source: patent publication US20130252930A1 (BIOMARIN PHARMACEUTICAL INC., priority 2010, published 2013)
Where two headings read alike, the source gives them in different places.

How the values were obtained:
[1] = target: T1, CYP17 (human testicular microsome) (Homo sapiens, UniProt P05093); assay: CYP17 enzymatic assay (IC50) (Biological Example 4); type: biochemical
T1 construct: using microsomal fraction from human testis (Celsis Cat #S00110) as the enzyme source; tissue Celsis S00110; host or cells: human testis microsomal fraction
T1 sequence (P05093 1-508): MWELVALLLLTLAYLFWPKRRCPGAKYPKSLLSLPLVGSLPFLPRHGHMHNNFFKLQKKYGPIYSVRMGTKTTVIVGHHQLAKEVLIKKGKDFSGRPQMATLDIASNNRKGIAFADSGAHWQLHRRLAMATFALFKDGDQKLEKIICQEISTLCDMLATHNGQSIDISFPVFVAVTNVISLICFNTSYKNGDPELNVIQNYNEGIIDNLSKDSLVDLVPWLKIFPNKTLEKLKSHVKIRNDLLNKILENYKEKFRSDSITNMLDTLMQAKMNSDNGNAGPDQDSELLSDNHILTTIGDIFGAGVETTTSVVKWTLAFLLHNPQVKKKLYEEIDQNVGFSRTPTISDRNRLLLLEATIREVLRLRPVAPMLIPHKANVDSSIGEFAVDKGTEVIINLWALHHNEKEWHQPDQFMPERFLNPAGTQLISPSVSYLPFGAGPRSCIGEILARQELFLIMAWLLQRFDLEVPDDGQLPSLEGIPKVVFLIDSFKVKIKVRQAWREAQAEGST

[2] = target: T1, CYP17 (human testicular microsome); assay: CYP17 enzymatic assay (% inhibition at 10 nM), version 1 (Biological Example 5); type: biochemical; conditions: 10 nM compound, DHEA by ELISA, read-out: Biological Example No. 5: CYP17 percent inhibition at 10 nM (version 1)
Protocol: The assays were performed in 96-well plates. Typical assays were carried out in total 100 μL volume that included test compounds at 10 nM concentration, 1× reaction buffer, 0.5 mM NADPH, 1 μM 17α-hydroxypregnenolone, and 2.5 μL of diluted human testicular microsome (Celsis. Cat #S00110). Reaction without test compound served as positive control. Reactions were allowed to incubate at 37° C. for 90 minutes with gentle shaking. The reaction was stopped by directly applying the enzymatic reaction mixture to ELISA plate for evaluation of DHEA concentration according to manufacturer's protocol (IBL America). A standard curve (OD450 vs. DHEA concentration) was generated using purified DHEA. […] Percent inhibition (inhibition %) of the compound was calculated using normalized DHEA concentration based on following formula: 100-([DHEA] of compound/[DHEA] of positive control *100).

[3] = Rat liver microsome stability assay (Biological Example 8a); conditions: liver microsomes, pH 7.4
[4] = target: T2, CYP17 (H295R cells) (Homo sapiens, UniProt P05093); assay: CYP17 cellular assay (IC50), testosterone in H295R cells (Biological Example 7); type: cell-based
T2 construct: endogenous in cells; host or cells: H295R cells
T2 sequence (P05093 1-508): T1 sequence (P05093 1-508)
In short: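 H295R cells cultured 24 h, then exposed to compound at 100, 10, 1, 0.1 nM final in serum-free DMEM/F-12 with ITS+ and 0.1% methanol for 24 h at 37 °C. Medium testosterone measured by ELISA and plotted against compound concentration.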

[5] = Human liver microsome stability assay (Biological Example 8b); conditions: liver microsomes, pH 7.4
Protocol: The reaction was started with addition of excess NADPH (5 mg/mL, 15 μL in 0.1 M potassium phosphate buffer, 1.0 mM EDTA, pH 7.4), the total volume is 45 μL (compound final concentration was 1 μM). […] 50 μL of the supernatant was transferred from each well into a 96-well sample plate containing 50 μL of ultra-pure water (Millipore) for LC-MS/MS analysis.

[6] = human testicular microsome, DHEA by ELISA, read-out: Biological Example No. 4: CYP17 enzymatic assay IC50
[7] = H295R cells, testosterone by ELISA, 24 hours, read-out: Biological Example No. 7: CYP17 cellular assay IC50

SMILES | IC50 [1, 6] [µM] | inhibition at 0.01 µM [2] [%] | half-life at 1 μM [3] [min] | IC50 [4, 7] [µM] | half-life at 1 μM [5] [min] | IC50 [1] [µM] | IC50 [4] [µM]
CN1C(=O)COC[C@@]2(C)C1CC[C@@H]1[C@@H]2CC[C@]2(C)C(c3cccnc3)=CC[C@@H]12 (stereo partly drawn) [Compound 98, (5aR,5bS,7aS,10aS,10bS)-1,5a,7a-trimethyl-8-(pyridin-3-yl)-5,5a,5b,6,7,7a,10,10a,10b,11,12,12a-dodecahydro-1H-cyclopenta[5,6]naphtho[2,1-e][1,4]oxazepin-2(3H)-one] | < 0.011 | 50 to 80 | 1 to 10 | – | – | – | –
Cc1cncc(C2=CC[C@H]3[C@@H]4CCN5C(=O)CCCC[C@]5(C)[C@H]4CC[C@]23C)c1 [Compound 39, (11aR,13aS)-11a,13a-dimethyl-1-(5-methylpyridin-3-yl)-3b,4,5,8,9,10,11,11a,11b,12,13,13a-dodecahydro-3H-azepino[2,1-a]cyclopenta[f]isoquinolin-7(3aH)-one] | < 0.011 | 50 to 80 | 1 to 10 | – | – | – | –
C[C@]12CCNC(=O)C[C@@H]1CC[C@@H]1[C@@H]2CC[C@]2(C)C(n3ccnn3)=CC[C@@H]12 [Compound 137] | < 0.011 | > 80 | 10 to 60 | < 0.015 | > 50 | – | –
C[C@]12CC[C@H]3[C@@H](CC[C@H]4C[C@@H](O)CC[C@@]43C)C1=CC=C2n1ccnc1 [Compound 170, (5S,8R,9S,10S,13S)-17-(1H-imidazol-1-yl)-10,13-dimethyl-2,3,4,5,6,7,8,9,10,11,12,13-dodecahydro-1H-cyclopenta[a]phenanthren-3-ol] | – | > 80 | 10 to 60 | < 0.015 | > 50 | < 0.011 | –
Cc1cncc(C2=CC[C@H]3[C@@H]4CC[C@H]5COCCC[C@]5(C)[C@H]4CC[C@]23C)c1 [Compound 127, 3-((5aR,5bS,7aS,10aS,10bR,12aR)-5a,7a-dimethyl-3,4,5,5a,5b,6,7,7a,10,10a,10b,11,12,12a-tetradecahydro-1H-cyclopenta[5,6]naphtho[2,1-c]oxepin-8-yl)-5-methylpyridine] | < 0.011 | 50 to 80 | 1 to 10 | – | – | – | –
COc1cncc(C2=CC[C@H]3[C@@H]4CCN5C(=O)CCCC[C@]5(C)[C@H]4CC[C@]23C)c1 [Compound 40, (11aR,13aS)-1-(5-methoxypyridin-3-yl)-11a,13a-dimethyl-3b,4,5,8,9,10,11,11a,11b,12,13,13a-dodecahydro-3H-azepino[2,1-a]cyclopenta[f]isoquinolin-7(3aH)-one] | < 0.011 | > 80 | 1 to 10 | – | – | – | –
CCOc1cncc(C2=CC[C@H]3[C@@H]4CC[C@H]5COCCC[C@]5(C)[C@H]4CC[C@]23C)c1 [Compound 125, 3-((5aR,5bS,7aS,10aS,10bR,12aR)-5a,7a-dimethyl-3,4,5,5a,5b,6,7,7a,10,10a,10b,11,12,12a-tetradecahydro-1H-cyclopenta[5,6]naphtho[2,1-c]oxepin-8-yl)-5-ethoxypyridine] | < 0.011 | 50 to 80 | 1 to 10 | – | – | – | –
Cc1cn(C2=CC[C@H]3[C@@H]4CCC5=CC(=O)NCC[C@]5(C)[C@H]4CC[C@]23C)cn1 [Compound 154] | < 0.011 | 50 to 80 | 10 to 60 | – | – | – | –
C[C@]12CCOCC[C@@H]1CC[C@@H]1[C@@H]2CC[C@]2(C)C(c3cccnc3)=CC[C@@H]12 [Compound 120, 3-((5aS,5bS,7aS,10aS,10bR,12aS)-5a,7a-dimethyl-2,4,5,5a,5b,6,7,7a,10,10a,10b,11,12,12a-tetradecahydro-1H-cyclopenta[5,6]naphtho[1,2-d]oxepin-8-yl)pyridine] | < 0.011 | > 80 | 1 to 10 | – | – | – | –
C[C@]12CC(=O)C[C@@H]1CC[C@@H]1[C@@H]2CC[C@]2(C)C(n3ccnc3)=CC[C@@H]12 [Compound 108, (3aS,3bS,5aS,8aS,8bR,10aS)-6-(1H-imidazol-1-yl)-3a,5a-dimethyl-3,3a,3b,4,5,5a,8,8a,8b,9,10,10a-dodecahydrodicyclopenta[a,f]naphthalen-2(1H)-one] | < 0.011 | > 80 | 1 to 10 | – | > 50 | – | –
C[C@]12CC[C@H]3[C@@H](CC[C@H]4C[C@@H](O)CC[C@@]43C)C1=CC=C2n1ccnn1 [Compound 176, (3S,8R,9S,10S,13S)-10,13-dimethyl-17-(1H-1,2,3-triazol-1-yl)-2,3,4,5,6,7,8,9,10,11,12,13-dodecahydro-1H-cyclopenta[a]phenanthren-3-ol] | – | – | 1 to 10 | – | – | > 0.025 | > 0.1
C[C@]12CCCCC[C@@H]1CC[C@@H]1[C@@H]2CC[C@]2(C)C(n3ccnc3)=CC[C@@H]12 [Compound 97, 1-((3aS,3bR,5aR,10aS,10bS,12aS)-10a,12a-dimethyl-3,3a,3b,4,5,5a,6,7,8,9,10,10a,10b,11,12,12a-hexadecahydrocyclohepta[a]cyclopenta[f]naphthalen-1-yl)-1H-imidazole] | < 0.011 | 50 to 80 | 10 to 60 | – | – | – | –
C[C@]12CCCOC[C@H]1CC[C@@H]1[C@@H]2CC[C@]2(C)C(c3cccnc3)=CC[C@@H]12 [Compound 121, 3-((5aR,5bS,7aS,10aS,10bR,12aS)-5a,7a-dimethyl-3,4,5,5a,5b,6,7,7a,10,10a,10b,11,12,12a-tetradecahydro-1H-cyclopenta[5,6]naphtho[2,1-c]oxepin-8-yl)pyridine] | < 0.011 | > 80 | 1 to 10 | – | – | – | –
COc1cncc(C2=CC[C@H]3[C@@H]4CC[C@H]5COCCC[C@]5(C)[C@H]4CC[C@]23C)c1 [Compound 123, 3-((5aR,5bS,7aS,10aS,10bR,12aR)-5a,7a-dimethyl-3,4,5,5a,5b,6,7,7a,10,10a,10b,11,12,12a-tetradecahydro-1H-cyclopenta[5,6]naphtho[2,1-c]oxepin-8-yl)-5-methoxypyridine] | < 0.011 | 50 to 80 | 1 to 10 | – | – | – | –
CCc1cncc(C2=CC[C@H]3[C@@H]4CCN5C(=O)CCCC[C@]5(C)[C@H]4CC[C@]23C)c1 [Compound 41, (11aR,13aS)-1-(5-ethylpyridin-3-yl)-11a,13a-dimethyl-3b,4,5,8,9,10,11,11a,11b,12,13,13a-dodecahydro-3H-azepino[2,1-a]cyclopenta[f]isoquinolin-7(3aH)-one] | < 0.011 | > 80 | 1 to 10 | – | – | – | –
COc1cncc(C2=CC[C@H]3[C@@H]4CC[C@H]5CCOCC[C@]5(C)[C@H]4CC[C@]23C)c1 [Compound 122, 3-((5aS,5bS,7aS,10aS,10bR,12aS)-5a,7a-dimethyl-2,4,5,5a,5b,6,7,7a,10,10a,10b,11,12,12a-tetradecahydro-1H-cyclopenta[5,6]naphtho[1,2-d]oxepin-8-yl)-5-methoxypyridine] | < 0.011 | 50 to 80 | 1 to 10 | – | – | – | –
